Experimental data from patent US20230107642A1 (Erasca, Inc., priority 2020, published 2023).

Molecular target: T1, K-Ras G12C (Homo sapiens, UniProt P01116, G12C)
T1 construct: This protein contained 188 amino acids in total, including an N-terminal 6-Histidine tag; made in house; host or cells: E. coli BL21
Assay: CAF assay (% CAF; method in Example 7, not in this part)
Format: binding
Conditions: 10 uM compound, 1 h incubation

C=CC(=O)N1C[C@H](C)N(c2nc(=O)n3c4c(c(-c5ccc(F)cc5)c(Cl)cc24)SC[C@@H]3CN2CCN(C3CC3)CC2)C[C@H]1C [Example 517, (S)-7-((2S,5R)-4-acryloyl-2,5-dimethylpiperazin-1-yl)-9-chloro-3-((4-cyclopropylpiperazin-1-yl)methyl)-10-(4-fluorophenyl)-2H-[1,4]thiazino[2,3,4-ij]quinazolin-5(3H)-one]
% CAF @ 10 uM, 1h: 59.5%

C=CC(=O)N1C[C@H](C)N(c2nc(=O)n3c4c(c(-c5ccc(F)cc5F)c(Cl)cc24)SC[C@@H]3CN2C[C@@H]3C[C@H]2CO3)C[C@H]1C [Example 519, (3S)-3-((1S,4S)-2-oxa-5-azabicyclo[2.2.1]heptan-5-ylmethyl)-7-((2S,5R)-4-acryloyl-2,5-dimethylpiperazin-1-yl)-9-chloro-10-(2,4-difluorophenyl)-2H-[1,4]thiazino[2,3,4-ij]quinazolin-5(3H)-one]
% CAF @ 10 uM, 1h: 61.3%

C=CC(=O)N1CCN(c2nc(=O)n3c4c(c(-c5cc(F)c(F)cc5F)c(Cl)cc24)SC[C@@H]3CN2CCN(C3CC3)CC2)[C@@H](C)C1 [Example 520, (3S)-7-((S)-4-acryloyl-2-methylpiperazin-1-yl)-9-chloro-3-((4-cyclopropylpiperazin-1-yl)methyl)-10-(2,4,5-trifluorophenyl)-2H-[1,4]thiazino[2,3,4-ij]quinazolin-5(3H)-one]
% CAF @ 10 uM, 1h: 51.1%

C=CC(=O)N1C[C@H](C)N(c2nc(=O)n3c4c(c(-c5cc(Cl)c(F)cc5F)c(C(F)(F)F)cc24)SC[C@@H]3CN2CCN(CC(F)F)CC2)C[C@H]1C [Example 521, (3S)-7-((2S,5R)-4-acryloyl-2,5-dimethylpiperazin-1-yl)-10-(5-chloro-2,4-difluorophenyl)-3-((4-(2,2-difluoroethyl)piperazin-1-yl)methyl)-9-(trifluoromethyl)-2H-[1,4]thiazino[2,3,4-ij]quinazolin-5(3H)-one]
% CAF @ 10 uM, 1h: 40.6%

C=CC(=O)N1CCN(c2nc(=O)n3c4c(c(-c5cc(F)c(F)cc5F)c(C(F)(F)F)cc24)SC[C@@H]3COCOC)[C@@H](C)C1 [Example 522, (3S)-7-((S)-4-acryloyl-2-methylpiperazin-1-yl)-3-((methoxymethoxy)methyl)-9-(trifluoromethyl)-10-(2,4,5-trifluorophenyl)-2H-[1,4]thiazino[2,3,4-ij]quinazolin-5(3H)-one]
% CAF @ 10 uM, 1h: 72.4%

C=CC(=O)N1C2CN(c3nc(=O)n4c5c(c(-c6ccc(F)cc6F)c(C(F)(F)F)cc35)SC[C@@H]4COC)CC1CC(F)(F)C2 [Example 523, (3S)-7-(9-acryloyl-7,7-difluoro-3,9-diazabicyclo[3.3.1]nonan-3-yl)-10-(2,4-difluorophenyl)-3-(methoxymethyl)-9-(trifluoromethyl)-2H-[1,4]thiazino[2,3,4-ij]quinazolin-5(3H)-one]
% CAF @ 10 uM, 1h: 68.9%

C=CC(=O)N1[C@H](C)CN(c2nc(=O)n3c4c(c(-c5ccc(F)cc5F)c(C(F)(F)F)cc24)SC[C@H](OC)C3)C[C@@H]1C [Example 524, (3R)-8-((3S,5R)-4-acryloyl-3,5-dimethylpiperazin-1-yl)-11-(2,4-difluorophenyl)-3-methoxy-10-(trifluoromethyl)-3,4-dihydro-2H,6H-[1,4]thiazepino[2,3,4-ij]quinazolin-6-one]
% CAF @ 10 uM, 1h: 95%

C=CC(=O)N1CCN(c2nc(=O)n3c4c(c(-c5ccc(F)cc5F)c(Cl)cc24)SC[C@H](OC)C3)CC1 [Example 525, (3R)-8-(4-acryloylpiperazin-1-yl)-10-chloro-11-(2,4-difluorophenyl)-3-methoxy-3,4-dihydro-2H,6H-[1,4]thiazepino[2,3,4-ij]quinazolin-6-one]
% CAF @ 10 uM, 1h: 86%

C=CC(=O)N1[C@H](C)CN(c2nc(=O)n3c4c(c(-c5ccc(F)cc5F)c(Cl)cc24)SC[C@H](OC)C3)C[C@@H]1C [Example 526, (3R)-8-((3S,5R)-4-acryloyl-3,5-dimethylpiperazin-1-yl)-10-chloro-11-(2,4-difluorophenyl)-3-methoxy-3,4-dihydro-2H,6H-[1,4]thiazepino[2,3,4-ij]quinazolin-6-one]
% CAF @ 10 uM, 1h: 93%
